Laboratory results from PMC12520178, “Turn-engineering tunes the conformational rigidity of β-hairpin AMPs in achieving membrane selectivity and killing drug-resistant ESKAPE pathogens” (Chemical Science, 2025).
≈ marks a conversion by molar mass, not a printed value. Like-named read-outs stand apart in the source and are kept apart here. Where a SMILES comes first, the peptide text is derived from it. Bridges are numbered along the chain shown (N, C = ends). [ ]: non-standard residue; d: D form. NMeR = CN[C@@H](CCCNC(=N)N)C(=O)O

Legend:
Escherichia coli = assay type: cell-based
human red blood cells [1] = experiment: Hemolysis assay against human red blood cells; settings: ≥10% hemolysis against human RBCs; 4% (v/v) hRBCs in PBS, 1.5 h at 37 °C, 405 nm; n = 3
Pseudomonas aeruginosa = assay type: cell-based
human red blood cells [2] = settings: cited from earlier work
Excerpt: These motifs were chosen based on their ability to induce 81% (-D-Ala-NMeArg–) and 92% (-D-Val-NMeArg-) β-hairpin folded fractions within a 12-mer linear peptide in aqueous solution.[24]

Acinetobacter baumannii = assay type: cell-based
Staphylococcus aureus = experiment: microbe, parasite or virus in culture; assay type: cell-based
Klebsiella pneumoniae = assay type: cell-based
human red blood cells [3] = settings: red cells of human
[4] = against E. coli, microbroth dilution, 5x10^5 cfu/mL, 20-24 h at 37 °C, turbidity 600 nm, n = 5, median

## CC(C)[C@@H]1NC(=O)[C@H](CCCNC(=N)N)NC(=O)[C@H](Cc2ccccc2)NC(=O)[C@@H](NC(=O)[C@H](Cc2c[nH]c3ccccc23)NC(=O)[C@H](CCCNC(=N)N)NC(=O)[C@@H](N)CCCNC(=N)N)CSSC[C@@H](C(=O)N[C@@H](CCCNC(=N)N)C(N)=O)NC(=O)[C@H](CCCCN)NC(=O)[C@H](CCCNC(=N)N)NC(=O)[C@H](Cc2ccc(O)cc2)NC(=O)[C@@H]2CSSC[C@H](NC1=O)C(=O)N[C@@H](Cc1ccc(O)cc1)C(=O)N[C@H](C)C(=O)N(C)[C@@H](CCCNC(=N)N)C(=O)N[C@@H](Cc1ccccc1)C(=O)N2 [3a] (H-RRWCFRVCY[dA][NMeR]FCYRKCR-NH2; disulfide 4-17, 8-13)
Escherichia coli; [4]
  MIC90: 0.7 µM (≈ 1.74 µg/mL)
Human red blood cells [1]
  MHC10 (μM), minimum hemolytic concentration: 12.5 µM

## CC(C)[C@@H]1NC(=O)[C@H](CCCNC(=N)N)NC(=O)[C@H](Cc2ccccc2)NC(=O)[C@@H](NC(=O)[C@H](Cc2c[nH]c3ccccc23)NC(=O)[C@H](CCCNC(=N)N)NC(=O)[C@@H](N)CCCNC(=N)N)CSSC[C@@H](C(=O)N[C@@H](CCCNC(=N)N)C(N)=O)NC(=O)[C@H](CCCCN)NC(=O)[C@H](CCCNC(=N)N)NC(=O)[C@H](Cc2ccc(O)cc2)NC(=O)[C@@H]2CSSC[C@H](NC1=O)C(=O)N[C@@H](Cc1ccc(O)cc1)C(=O)N[C@H](C(C)C)C(=O)N(C)[C@@H](CCCNC(=N)N)C(=O)N[C@@H](Cc1ccccc1)C(=O)N2 [3b] (H-RRWCFRVCY[dV][NMeR]FCYRKCR-NH2; disulfide 4-17, 8-13)
Escherichia coli; [4]
  MIC90: 0.9 µM (≈ 2.26 µg/mL)
Human red blood cells [1]
  MHC10 (μM), minimum hemolytic concentration: 6.25 µM

## CC[C@H](C)[C@@H]1NC(=O)[C@H](CCCNC(=N)N)N(C)C(=O)[C@@H](C)NC(=O)[C@H](Cc2ccc(O)cc2)NC(=O)[C@@H]2CSSC[C@H](NC1=O)C(=O)N[C@@H](Cc1ccc(O)cc1)C(=O)N[C@@H](CCCNC(=N)N)C(=O)N[C@@H](CCCNC(=N)N)C(=O)N[C@H](C(=O)N[C@@H](CCCNC(=N)N)C(N)=O)CSSC[C@H](NC(=O)[C@H](Cc1c[nH]c3ccccc13)NC(=O)[C@@H](N)CCCCN)C(=O)N[C@@H](Cc1ccccc1)C(=O)N[C@@H](CCCNC(=N)N)C(=O)N[C@@H](C(C)C)C(=O)N2 [4a] (H-KWCFRVCY[dA][NMeR]ICYRRCR-NH2; disulfide 3-16, 7-12)
Escherichia coli; [4]
  MIC90: 0.3 µM (≈ 0.688 µg/mL)
Human red blood cells [1]
  MHC10 (μM), minimum hemolytic concentration: 12.5 µM

## CC[C@H](C)[C@@H]1NC(=O)[C@H](CCCNC(=N)N)N(C)C(=O)[C@@H](C(C)C)NC(=O)[C@H](Cc2ccc(O)cc2)NC(=O)[C@@H]2CSSC[C@H](NC1=O)C(=O)N[C@@H](Cc1ccc(O)cc1)C(=O)N[C@@H](CCCNC(=N)N)C(=O)N[C@@H](CCCNC(=N)N)C(=O)N[C@H](C(=O)N[C@@H](CCCNC(=N)N)C(N)=O)CSSC[C@H](NC(=O)[C@H](Cc1c[nH]c3ccccc13)NC(=O)[C@@H](N)CCCCN)C(=O)N[C@@H](Cc1ccccc1)C(=O)N[C@@H](CCCNC(=N)N)C(=O)N[C@@H](C(C)C)C(=O)N2 [4b] (H-KWCFRVCY[dV][NMeR]ICYRRCR-NH2; disulfide 3-16, 7-12)
Escherichia coli; [4]
  MIC90: 0.2 µM (≈ 0.464 µg/mL)
Human red blood cells [1]
  MHC10 (μM), minimum hemolytic concentration: 12.5 µM

## CC(C)[C@@H]1NC(=O)CNC(=O)[C@H](CCCNC(=N)N)NC(=O)[C@H](C(C)C)NC(=O)[C@H](CCCNC(=N)N)NC(=O)[C@H](C)NC(=O)[C@H](Cc2ccc(O)cc2)NC(=O)[C@H](C(C)C)NC(=O)[C@@H](NC(=O)[C@H](Cc2c[nH]c3ccccc23)NC(=O)[C@@H](N)CCCNC(=N)N)CSSC[C@@H](C(=O)N[C@@H](Cc2c[nH]c3ccccc23)C(=O)O)NC(=O)[C@H](CCCNC(=N)N)NC(=O)[C@H](CCCNC(=N)N)NC(=O)[C@H](Cc2ccc(O)cc2)NC(=O)[C@H](CCCNC(=N)N)NC1=O [compound 1, reference compound] (H-RWCVYARVRGVRYRRCW-OH; disulfide 3-16)
Pseudomonas aeruginosa
  MIC (μM) pa: 3.12 µM (≈ 7.13 µg/mL)
Escherichia coli
  MIC90: 1.2 µM (≈ 2.74 µg/mL)
  MIC (μM) ec: 1.2 µM (≈ 2.74 µg/mL)
Human red blood cells [2]
  hemolysis (toxicity): no measurable hemolysis
Acinetobacter baumannii
  MIC (μM) ab: 0.8 µM (≈ 1.83 µg/mL)
Staphylococcus aureus
  MIC (μM) sa: 1.6 µM (≈ 3.65 µg/mL)
Klebsiella pneumoniae
  MIC (μM) kp: 0.8 µM (≈ 1.83 µg/mL)

## CC(C)C[C@H](NC(=O)[C@H](CCCNC(=N)N)NC(=O)CNC(=O)CNC(=O)[C@@H](N)CCCNC(=N)N)C(=O)N[C@H]1CSSC[C@@H](C(=O)N[C@H](C(=O)NCC(=O)N[C@@H](CCCNC(=N)N)C(N)=O)C(C)C)NC(=O)[C@H](C(C)C)NC(=O)[C@@H]2CSSC[C@H](NC(=O)[C@H](Cc3ccc(O)cc3)NC1=O)C(=O)N[C@@H](CCCNC(=N)N)C(=O)N[C@@H](CCCNC(=N)N)C(=O)N[C@@H](CCCNC(=N)N)C(=O)N[C@@H](Cc1ccccc1)C(=O)N2 [compound 2, reference compound]
Pseudomonas aeruginosa
  MIC (μM) pa: 0.6 µM (≈ 1.29 µg/mL)
Escherichia coli
  MIC90: 0.3 µM (≈ 0.647 µg/mL)
  MIC (μM) ec: 0.3 µM (≈ 0.647 µg/mL)
Acinetobacter baumannii
  MIC (μM) ab: 0.4 µM (≈ 0.862 µg/mL)
Staphylococcus aureus
  MIC (μM) sa: 3.1 µM (≈ 6.68 µg/mL)
Human red blood cells [3]
  MHC10 (μM), minimum hemolytic concentration: 3.12 µM
Klebsiella pneumoniae
  MIC (μM) kp: 0.6 µM (≈ 1.29 µg/mL)
